Measurements published in patent US10022376B2 (Pfizer Inc., priority 2014, dated 2018).
pIC50: −log10 of the molar value. Counter-ions that a name gives are not always drawn.

Columns and labels:
[1] = test system: rhIL-2 stimulated STAT5 phosphorylation in isolated human T cells; test: Human T Cell Assay: Inhibition of pSTAT5; assay type: cell-based
Protocol: Human T Cell Assay: Inhibition of pSTAT5
An assay measuring the efficacy of JAK inhibitors on the functional response of recombinant human interleukin-2 (rhIL-2) stimulated STAT5 phosphorylation in isolated human T cells.
Human whole blood from individual donors was collected from the phlebotomy unit on-site. Peripheral venous blood (30-60 mL) from healthy volunteers of either sex was used as the source of T cells. T cell isolation from venous whole blood is routinely performed in a class II microbiological safety cabinet. Each sample was collected into between 3 and 6 10 mL Sodium Heparin Vacutainer tubes (BD #367874). The blood was poured into sterile 50 mL conicals (Corning #430828) and incubated with the T cell Rosette Sep Cocktail (Stemcell Technologies #15061) at 50 μL/mL antibody/blood ratio for 20 min. with shaking at room temperature. The blood/antibody mixture was then diluted 1:2 with PBS (Pfizer media prep)/2% FBS (Sigma #F4135) and 30 mL of the mixture was layered onto 15 mL Ficoll-Hypaque (GE Healthcare #17-1440-03) in 50 mL conical tubes. The tubes were then centrifuged at 1200×g for 20 min. at room temperature with no brake. Following centrifugation the T cells formed a buffy coat between the Ficoll-Hypaque and plasma layers. The plasma above the buffy coats was removed to within 5 mm of the buffy coat using a sterile Pasteur pipette. The buffy coats were then collected into fresh sterile 50 mL conical tubes containing 25 mL PBS/2% FBS (2 buffy coats per 50 mL conical). PBS/2% FBS was added to the buffy coat cells such that the final volume in the tube was 50 mL. The tubes were then centrifuged at 200×g for 15 min. at room temperature. The supernatant was discarded and the pellet re-suspended in 10-20 mL of DMEM (Pfizer media prep) Assay media/0.2% BSA (Miltenyi #130-091-376). A differential cell count was performed using a haemacytometer and cells were diluted to 1.1×10^6 T cells/ml in DMEM/0.2% BSA media. Compounds (10 mM-0.3 μM) were diluted with Hanks Balanced Salt Solution (HBSS) (Sigma #H6648) at 1:100 dilution. Immediately following cell isolation and compound dilution, 90 μl/well of T cells (˜1×10^6/ml) in assay medium (DMEM+0.2% BSA) was added to the VWR Deep well V bottom plate (#3906-520-300). 10 μl/well of compound (final concentration range of 10 μM-0.3 nM with 0.1% DMSO) or 0.1% DMSO in HBSS as controls was added to the appropriate wells. Plates were incubated for 1 hour at 37° C., 5% CO2 incubator. 10 μl of 3.3 μg/mL rhIL-2 (R&D Systems #202-IL) was added to the cells (300 ng/ml final assay concentration). Wells containing T cells, medium with 0.1% DMSO and no rhIL-2 were used as background controls. Plates were incubated for 15 min at 37° C. After rhIL-2 stimulation, 800 μL of cold PBS/0.1% BSA was added and the plates were centrifuged at 1400 rpm for 5 min at 4° C. Supernatant was aspirated and 100 μL of ice-cold MSD lysis buffer containing protease and phosphatase inhibitors from Phospho-STAT5a/b Tyr694 assay kit (Meso-Scale Discovery #K150IGD) was added to the cell pellet. Plates were shaken for 30 min. at 4° C. and then frozen overnight. The following day, cell lysates were assayed using the MSD ELISA kit protocol for detection of pSTAT5.
Data were collected and transformed into percent inhibition and calculated using the following formula: […]

[2] = test system: rhIFNγ stimulated STAT-3 phosphorylation in the A549 human epithelial cell line; test: A549 Cell Assay: Inhibition of pSTAT3; assay type: cell-based; conditions: Homo sapiens; A549 cells
Procedure, shortened: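 Percent inhibition of STAT3 Tyr705 phosphorylation was measured by MSD immunoassay of cell lysates. A549 cells were given compound for 1 h at 37° C (final 0.3 nM to 10 μM, 0.1% DMSO, in 0.2% BSA DMEM), followed by 30 min of rhIFNγ stimulation at 20 ng/mL final. Unstimulated DMSO wells served as background.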

| SMILES | pIC50 [1] | pIC50 [2] |
| --- | --- | --- |
| CCc1cc(O)c(F)cc1-c1cc2[nH]ncc2c(N(C)Cc2ccccc2N(C)S(C)(=O)=O)n1 [Example 146, N-[2-({[6-(2-Ethyl-5-fluoro-4-hydroxyphenyl)-1H-pyrazolo[4,3-c]pyridin-4-yl](methyl)amino}methyl)phenyl]-N-methylmethanesulfonamide hydrochloride] | 7.21 | 8.12 |
| CC(=O)N1CCc2[nH]c(-c3n[nH]c4nc(-c5cc(F)c(O)cc5CC(F)(F)F)nc(NCc5cc(O)ccc5N(C)S(C)(=O)=O)c34)nc2C1 [Example 170, N-{2-[({3-(5-Acetyl-4,5,6,7-tetrahydro-1H-imidazo[4,5-c]pyridin-2-yl)-6-[5-fluoro-4-hydroxy-2-(2,2,2-trifluoroethyl)phenyl]-1H-pyrazolo[3,4-d]pyrimidin-4-yl}amino)methyl]-4-hydroxyphenyl}-N-methylmethanesulfonamide] | 6.12 | 5.87 |
| CCc1cc(O)c(F)cc1-c1cc2[nH]nc(C(=O)Nc3ccc(C)nc3)c2c(NCc2ccccc2N(C)S(C)(=O)=O)n1 [Example 56, 6-(2-ethyl-5-fluoro-4-hydroxyphenyl)-4-({2-[methyl(methylsulfonyl)amino]benzyl}amino)-N-(6-methylpyridin-3-yl)-1H-pyrazolo[4,3-c]pyridine-3-carboxamide] | 7.27 | 6.56 |
| CN(c1ccccc1CNc1nc(-c2cc(F)c(O)cc2CC(F)(F)F)cc2[nH]nc(C(N)=O)c12)S(C)(=O)=O [Example 77, 6-[5-Fluoro-4-hydroxy-2-(2,2,2-trifluoroethyl)phenyl]-4-({2-[methyl(methylsulfonyl)amino]benzyl}amino)-1H-pyrazolo[4,3-c]pyridine-3-carboxamide] | 7.22 | 7.48 |
| CCc1cc(O)c(F)cc1-c1cc2[nH]ncc2c(NCc2cc(Cl)ccc2N(C)S(C)(=O)=O)n1 [Example 133, N-[4-chloro-2-({[6-(2-ethyl-5-fluoro-4-hydroxyphenyl)-1H-pyrazolo[4,3-c]pyridin-4-yl]amino}methyl)phenyl]-N-methylmethanesulfonamide hydrochloride] | 7.46 | 8.00 |
| CCc1cc(O)c(F)cc1-c1cc2[nH]ncc2c(NCc2c(F)cccc2N(C)S(C)(=O)=O)n1 [Example 134, N-[2-({[6-(2-ethyl-5-fluoro-4-hydroxyphenyl)-1H-pyrazolo[4,3-c]pyridin-4-yl]amino}methyl)-3-fluorophenyl]-N-methylmethanesulfonamide hydrochloride] | 6.59 |  |
| CCc1cc(O)c(F)cc1-c1nc(NCc2ccccc2N(C)S(C)(=O)=O)c2c(C(=O)NC)n[nH]c2n1 [Example 93, 6-(2-Ethyl-5-fluoro-4-hydroxyphenyl)-N-methyl-4-((2-(N-methylmethylsulfonamido)benzyl)amino)-1H-pyrazolo[3,4-d]pyrimidine-3-carboxamide] | 7.39 | 7.50 |
| CCc1cc(O)c(F)cc1-c1cc2[nH]ncc2c(N(C)Cc2ccccc2N(CC)S(C)(=O)=O)n1 [Example 145, N-Ethyl-N-[2-({[6-(2-ethyl-5-fluoro-4-hydroxyphenyl)-1H-pyrazolo[4,3-c]pyridin-4-yl](methyl)amino}methyl)phenyl]methanesulfonamide hydrochloride] | 6.80 | 7.80 |
| CCc1cc(O)c(F)cc1-c1cc2[nH]nc(C(=O)NC)c2c(NCc2cc(O)ccc2N(C)S(C)(=O)=O)n1 [Example 31, 6-(2-Ethyl-5-fluoro-4-hydroxyphenyl)-4-({5-hydroxy-2-[methyl (methylsulfonyl)amino]benzyl}amino)-N-methyl-1H-pyrazolo[4,3-c]pyridine-3-carboxamide] | 7.32 | 7.13 |
| CCc1cc(O)c(F)cc1-c1cc2[nH]ncc2c(NCc2cc(C)ccc2N(C)S(C)(=O)=O)n1 [Example 132, N-[2-({[6-(2-ethyl-5-fluoro-4-hydroxyphenyl)-1H-pyrazolo[4,3-c]pyridin-4-yl]amino}methyl)-4-methylphenyl]-N-methylmethanesulfonamide hydrochloride] | 6.69 | 6.59 |

The next lines start with the values.

| pIC50 [1] | pIC50 [2] | SMILES |
| --- | --- | --- |
| 6.49 | 6.14 | CN(c1ccccc1CNc1nc(-c2cc(F)c(O)cc2CC(F)(F)F)nc2[nH]nc(C(N)=O)c12)S(C)(=O)=O [Example 98, 6-(5-Fluoro-4-hydroxy-2-(2,2,2-trifluoroethyl)phenyl)-4-((2-(N-methylmethylsulfonamido)benzyl)amino)-1H-pyrazolo[3,4-d]pyrimidine-3-carboxamide] |
| 6.92 | 6.49 | Cc1ccc(NC(=O)c2n[nH]c3cc(-c4cc(F)c(O)cc4CC(F)(F)F)nc(NCc4ccccc4N(C)S(C)(=O)=O)c23)cn1 [Example 76, 6-[5-Fluoro-4-hydroxy-2-(2,2,2-trifluoroethyl)phenyl]-4-({2-[methyl(methylsulfonyl)amino]-benzyl}amino)-N-(6-methylpyridin-3-yl)-1H-pyrazolo[4,3-c]pyridine-3-carboxamide] |
| 6.23 | 6.16 | Cc1ccc(-c2nnc(-c3n[nH]c4cc(-c5cc(F)c(O)cc5CC(F)(F)F)nc(NCc5ccccc5N(C)S(C)(=O)=O)c34)[nH]2)cn1 [Example 166, N-{2-[({6-[5-Fluoro-4-hydroxy-2-(2,2,2-trifluoroethyl)phenyl]-3-[5-(6-methylpyridin-3-yl)-4H-1,2,4-triazol-3-yl]-1H-pyrazolo[4,3-c]pyridin-4-yl}amino)methyl]phenyl}-N-methylmethanesulfonamide] |
| 7.69 | 7.92 | CCc1cc(O)c(F)cc1-c1cc2[nH]nc(C(=O)NC)c2c(NCc2ccccc2N(C)S(C)(=O)=O)n1 [Example 19, 6-(2-ethyl-5-fluoro-4-hydroxyphenyl)-N-methyl-4-({2-[methyl(methylsulfonyl)amino]benzyl}amino)-1H-pyrazolo[4,3-c]pyridine-3-carboxamide] |
| 6.46 | 6.40 | CN(c1ccc(O)cc1CNc1nc(-c2cc(F)c(O)cc2CC(F)(F)F)cc2[nH]nc(C(N)=O)c12)S(C)(=O)=O [Example 92, 6-[5-Fluoro-4-hydroxy-2-(2,2,2-trifluoroethyl)phenyl]-4-({5-hydroxy-2-[methyl(methylsulfonyl)amino]benzyl}amino)-1H-pyrazolo[4,3-c]pyridine-3-carboxamide] |
| 7.04 | 6.25 | CCc1cc(O)c(F)cc1-c1cc2[nH]nc(-c3nnc(C)[nH]3)c2c(NCc2ccccc2N(C)S(C)(=O)=O)n1 [Example 165, N-[2-({[6-(2-Ethyl-5-fluoro-4-hydroxyphenyl)-3-(5-methyl-4H-1,2,4-triazol-3-yl)-1H-pyrazolo[4,3-c]pyridin-4-yl]amino}methyl)phenyl]-N-methylmethanesulfonamide] |
| 7.61 | 8.13 | CCc1cc(O)c(F)cc1-c1cc2[nH]ncc2c(NCc2ccccc2N(C)S(C)(=O)=O)n1 [Example 131, N-[2-({[6-(2-Ethyl-5-fluoro-4-hydroxyphenyl)-1H-pyrazolo[4,3-c]pyridin-4-yl]amino}methyl)phenyl]-N-methylmethanesulfonamide] |
